Experimental data from ChEMBL document CHEMBL4382204 (Eur J Med Chem, 2018).

Assays:
[1] = Antiproliferative activity in mouse BAF3 cells after 72 hrs by CCK8 assay; type: cell-based
[2] = target: Bcr/Abl fusion protein (Homo sapiens) (UniProt P00519+P11274); settings: BaF3
Description: Inhibition of wild type BCR/ABL (unknown origin) transfected in mouse BAF3 cells assessed as growth inhibition after 72 hrs by CCK8 assay

[3] = test system: Bcr/Abl fusion protein (Homo sapiens), P00519+P11274 [T315I]; settings: BaF3
[4] = Selectivity ratio of GI50 for mouse BAF3 cells to GI50 for BCR/ABL T315I mutant (unknown origin) transfected in mouse BAF3 cells
[5] = Selectivity ratio of GI50 for mouse BAF3 cells to GI50 for wild type BCR/ABL (unknown origin) transfected in mouse BAF3 cells
K562 = test: Antiproliferative activity in human K562 cells after 72 hrs by CCK8 assay; type: functional; settings: K562, 72 h
KU812 cell line = test: Antiproliferative activity in human KU812 cells after 72 hrs by CCK8 assay; type: functional; settings: KU812, 72 h
MEG-01 = test: Antiproliferative activity in human MEG01 cells after 72 hrs by CCK8 assay; type: functional; settings: MEG-01, 72 h
MEC1 = test: Antiproliferative activity in human MEC1 cells after 72 hrs by CCK8 assay; type: functional; settings: MEC1, 72 h
HL-60 = test: Antiproliferative activity in human HL60 cells after 72 hrs by CCK8 assay; type: functional; settings: HL-60, 72 h
OCI-AML2 = test: Antiproliferative activity in human OCI-AML2 cells after 72 hrs by CCK8 assay; type: functional; settings: OCI-AML2, 72 h
U-937 = test: Antiproliferative activity in human U937 cells after 72 hrs by CCK8 assay; type: functional; settings: U-937, 72 h
[6] = Antiproliferative activity in CHO cells after 72 hrs by CCK8 assay; type: cell-based, Cricetulus griseus; settings: chinese hamster
BaF3 = test: Antitumor activity against mouse BAF3 cells expressing BCR/ABL T315I mutant allografted in nu/nu mouse assessed as tumor weight at 100 mg/kg, po administered via gavage measured for 14 days (reference value: 2.78 g); type: functional

Bcr/Abl fusion protein (Homo sapiens), sequence (P00519 whole entry, looked up, the tested form may be a part): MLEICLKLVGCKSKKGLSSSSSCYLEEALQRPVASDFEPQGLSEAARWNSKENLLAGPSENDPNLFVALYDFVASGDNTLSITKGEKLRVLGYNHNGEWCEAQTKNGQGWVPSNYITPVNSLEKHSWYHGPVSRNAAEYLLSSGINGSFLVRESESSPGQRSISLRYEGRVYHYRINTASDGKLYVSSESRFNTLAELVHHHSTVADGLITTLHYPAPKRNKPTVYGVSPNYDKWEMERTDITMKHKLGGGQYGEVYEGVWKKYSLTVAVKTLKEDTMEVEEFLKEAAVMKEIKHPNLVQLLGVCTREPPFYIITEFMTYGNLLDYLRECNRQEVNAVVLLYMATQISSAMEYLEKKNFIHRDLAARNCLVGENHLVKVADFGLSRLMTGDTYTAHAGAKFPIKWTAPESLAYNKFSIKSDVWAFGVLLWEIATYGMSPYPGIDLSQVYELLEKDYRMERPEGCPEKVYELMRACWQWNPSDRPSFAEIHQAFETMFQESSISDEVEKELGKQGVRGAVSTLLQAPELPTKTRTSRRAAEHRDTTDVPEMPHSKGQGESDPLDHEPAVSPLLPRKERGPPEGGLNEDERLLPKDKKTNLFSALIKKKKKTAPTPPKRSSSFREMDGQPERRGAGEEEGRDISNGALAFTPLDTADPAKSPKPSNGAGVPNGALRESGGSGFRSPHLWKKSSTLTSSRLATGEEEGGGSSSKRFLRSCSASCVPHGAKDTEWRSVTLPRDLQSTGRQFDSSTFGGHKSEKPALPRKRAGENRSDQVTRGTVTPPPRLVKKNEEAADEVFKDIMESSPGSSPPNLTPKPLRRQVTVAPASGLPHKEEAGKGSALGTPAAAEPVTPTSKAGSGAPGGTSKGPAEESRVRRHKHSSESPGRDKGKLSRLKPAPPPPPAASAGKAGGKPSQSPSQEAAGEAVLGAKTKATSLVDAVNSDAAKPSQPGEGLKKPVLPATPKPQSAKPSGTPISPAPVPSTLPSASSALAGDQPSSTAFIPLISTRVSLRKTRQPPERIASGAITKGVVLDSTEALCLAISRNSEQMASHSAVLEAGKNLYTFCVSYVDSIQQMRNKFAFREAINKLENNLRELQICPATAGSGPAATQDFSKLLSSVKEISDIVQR
Bcr/Abl fusion protein (Homo sapiens), sequence (P11274 whole entry, looked up, the tested form may be a part): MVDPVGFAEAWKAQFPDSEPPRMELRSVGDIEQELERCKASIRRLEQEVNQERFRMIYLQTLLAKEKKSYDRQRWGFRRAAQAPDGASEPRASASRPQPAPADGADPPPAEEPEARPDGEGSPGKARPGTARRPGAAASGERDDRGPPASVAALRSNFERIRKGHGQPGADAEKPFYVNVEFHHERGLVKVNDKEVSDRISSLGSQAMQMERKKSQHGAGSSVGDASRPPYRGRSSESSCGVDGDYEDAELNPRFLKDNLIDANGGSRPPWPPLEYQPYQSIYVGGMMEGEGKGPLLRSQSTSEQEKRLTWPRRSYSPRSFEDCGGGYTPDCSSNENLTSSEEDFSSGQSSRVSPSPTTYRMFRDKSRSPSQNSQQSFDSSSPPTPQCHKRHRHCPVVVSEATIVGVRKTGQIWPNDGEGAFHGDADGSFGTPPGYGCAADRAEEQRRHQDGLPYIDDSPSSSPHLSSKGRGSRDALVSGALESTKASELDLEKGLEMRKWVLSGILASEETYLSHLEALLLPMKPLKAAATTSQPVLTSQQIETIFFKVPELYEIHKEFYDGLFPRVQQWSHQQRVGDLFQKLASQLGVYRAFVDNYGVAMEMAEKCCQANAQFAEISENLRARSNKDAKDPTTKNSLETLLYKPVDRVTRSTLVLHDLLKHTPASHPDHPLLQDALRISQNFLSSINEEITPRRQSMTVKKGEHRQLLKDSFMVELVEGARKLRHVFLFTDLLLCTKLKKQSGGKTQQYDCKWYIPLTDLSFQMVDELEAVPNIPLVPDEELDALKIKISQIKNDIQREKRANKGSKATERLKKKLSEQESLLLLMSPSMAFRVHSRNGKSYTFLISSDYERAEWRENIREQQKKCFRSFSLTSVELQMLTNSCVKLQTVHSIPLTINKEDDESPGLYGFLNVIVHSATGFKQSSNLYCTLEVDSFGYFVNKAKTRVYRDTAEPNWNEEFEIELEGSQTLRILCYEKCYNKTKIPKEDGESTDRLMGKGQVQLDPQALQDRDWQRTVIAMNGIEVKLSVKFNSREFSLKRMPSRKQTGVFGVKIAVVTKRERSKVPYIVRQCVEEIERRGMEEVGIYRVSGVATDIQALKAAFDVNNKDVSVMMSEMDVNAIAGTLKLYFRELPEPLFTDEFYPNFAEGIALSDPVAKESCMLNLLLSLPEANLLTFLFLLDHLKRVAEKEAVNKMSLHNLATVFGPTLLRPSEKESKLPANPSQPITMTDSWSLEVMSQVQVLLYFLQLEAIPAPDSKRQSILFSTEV

GI50 [2]	GI50 [3]	SMILES	GI50 at 72 h [1]	further results
0.59 µM	0.86 µM	COc1ccc(NC(=O)CCSc2ccc3c(/C=C/c4ccccn4)n[nH]c3c2)cc1C(F)(F)F	> 10 µM	–
0.11 µM	0.11 µM	CN(C)CCN(C)Cc1ccc(NC(=O)CCSc2ccc3c(/C=C/c4ccccn4)n[nH]c3c2)cc1C(F)(F)F	1.85 µM	–
> 10 µM	> 10 µM	CNC(=O)CCSc1ccc2c(/C=C/c3ccccn3)n[nH]c2c1	> 10 µM	–
2.74 µM	2.06 µM	O=C(NCCSc1ccc2c(/C=C/c3ccccn3)n[nH]c2c1)Nc1cccc(C(F)(F)F)c1	3 µM	–
0.33 µM	0.17 µM	Cc1n[nH]c2cc(SCCC(=O)Nc3ccc(CN4CCN(C)CC4)c(C(F)(F)F)c3)ccc12	3.9 µM	–
0.18 µM	0.24 µM	CN1CCN(Cc2ccc(NC(=O)NCCSc3ccc4c(/C=C/c5ccccn5)n[nH]c4c3)cc2C(F)(F)F)CC1	3.1 µM	–
0.07 µM	0.058 µM	CN1CCN(Cc2ccc(NC(=O)CCSc3ccc4c(-c5cccnc5)n[nH]c4c3)cc2C(F)(F)F)CC1	2.65 µM	–
0.9 µM	0.28 µM	O=C(CCSc1ccc2c(/C=C/c3ccccn3)n[nH]c2c1)Nc1cccc(C(F)(F)F)c1	2.3 µM	–
0.16 µM	0.21 µM	O=C(CCSc1ccc2c(/C=C/c3ccccn3)n[nH]c2c1)Nc1ccc(CN2CCOCC2)c(C(F)(F)F)c1	3.97 µM	–
0.5 µM	0.51 µM	O=C(CCSc1ccc2c(/C=C/c3ccccn3)n[nH]c2c1)Nc1ccccc1	0.69 µM	–
0.16 µM	0.088 µM	Cc1ccc(NC(=O)CCSc2ccc3c(/C=C/c4ccccn4)n[nH]c3c2)cc1C(F)(F)F	0.53 µM	–
3.15 µM	4.03 µM	Cc1cccc(NC(=O)CCSc2ccc3c(/C=C/c4ccccn4)n[nH]c3c2)c1	> 10 µM	–
0.038 µM	0.018 µM	CN1CCN(Cc2ccc(NC(=O)CCSc3ccc4c(-c5ccncc5)n[nH]c4c3)cc2C(F)(F)F)CC1	1.06 µM	–
0.004 µM	0.004 µM	CCN1CCN(Cc2ccc(NC(=O)CCSc3ccc4c(/C=C/c5ccccn5)n[nH]c4c3)cc2C(F)(F)F)CC1	0.84 µM	RatioGI50 [4]: 200; RatioGI50 [5]: 200
0.3 µM	0.12 µM	O=C(CCSc1ccc2c(/C=C/c3ccccn3)n[nH]c2c1)Nc1ccc(F)c(C(F)(F)F)c1	0.61 µM	–
3.39 µM	7.05 µM	O=C(CCSc1ccc2c(/C=C/c3ccccn3)n[nH]c2c1)NCc1cccc(C(F)(F)F)c1	8.03 µM	–
0.091 µM	0.049 µM	Cc1ccc(-c2n[nH]c3cc(SCCC(=O)Nc4ccc(CN5CCN(C)CC5)c(C(F)(F)F)c4)ccc23)cn1	1.18 µM	–

GI50 [2]	GI50 [3]	SMILES	GI50 at 72 h [1]	further results
8.24 µM	8.18 µM	CN1CCN(c2cccc(NC(=O)CCSc3ccc4c(/C=C/c5ccccn5)n[nH]c4c3)c2)CC1	> 10 µM	–
1.56 µM	2.91 µM	O=C(CCSc1ccc2c(/C=C/c3ccccn3)n[nH]c2c1)Nc1cccc(Cl)c1	9.35 µM	–
9.67 µM	5.52 µM	CN(C)c1cccc(NC(=O)CCSc2ccc3c(/C=C/c4ccccn4)n[nH]c3c2)c1	> 10 µM	–
0.015 µM	0.02 µM	CN1CCN(Cc2ccc(NC(=O)CCSc3ccc4c(-c5cnn(C)c5)n[nH]c4c3)cc2C(F)(F)F)CC1	1.4 µM	–
2.72 µM	1.62 µM	O=C(NCCSc1ccc2c(/C=C/c3ccccn3)n[nH]c2c1)c1cccc(C(F)(F)F)c1	1.5 µM	–
0.5 µM	0.65 µM	O=C(NCCCSc1ccc2c(/C=C/c3ccccn3)n[nH]c2c1)c1cccc(C(F)(F)F)c1	0.98 µM	–
0.15 µM	0.12 µM	O=C(CCSc1ccc2c(/C=C/c3ccccn3)n[nH]c2c1)Nc1ccc(CN2CCCC2)c(C(F)(F)F)c1	4 µM	–
0.75 µM	0.93 µM	CN1CCN(Cc2ccc(C(=O)NCCSc3ccc4c(/C=C/c5ccccn5)n[nH]c4c3)cc2C(F)(F)F)CC1	4.8 µM	–
0.032 µM	0.11 µM	CN1CCN(Cc2ccc(NC(=O)CCSc3ccc4c(-c5ccccc5)n[nH]c4c3)cc2C(F)(F)F)CC1	0.6 µM	–
3.22 µM	3.21 µM	COc1cccc(NC(=O)CCSc2ccc3c(/C=C/c4ccccn4)n[nH]c3c2)c1	3.84 µM	–
–	–	CNC(=O)c1ccccc1Sc1ccc2c(/C=C/c3ccccn3)n[nH]c2c1 [AXITINIB]	1.64 µM	GI50 (K562): 0.94 µM; GI50 (KU812 cell line): 0.5 µM; GI50 (MEG-01): 0.97 µM; GI50 (MEC1): 1.54 µM; GI50 (HL-60): 6.78 µM; GI50 (OCI-AML2): 2.36 µM; GI50 (U-937): 1.98 µM; GI50 at 72 h [6]: > 10 µM
–	–	Cc1ccc(NC(=O)c2ccc(CN3CCN(C)CC3)cc2)cc1Nc1nccc(-c2cccnc2)n1 [IMATINIB]	> 10 µM	GI50 (K562): 0.25 µM; GI50 (KU812 cell line): 0.31 µM; GI50 (MEG-01): 0.28 µM; GI50 (MEC1): > 10 µM; GI50 (HL-60): > 10 µM; GI50 (OCI-AML2): > 10 µM; GI50 (U-937): > 10 µM; GI50 at 72 h [6]: > 10 µM; Activity (BaF3): 3.36 g
0.022 µM	0.33 µM	CN1CCN(Cc2ccc(C(=O)NCCCSc3ccc4c(/C=C/c5ccccn5)n[nH]c4c3)cc2C(F)(F)F)CC1	4.4 µM	–
1.51 µM	1.99 µM	O=C(CCSc1ccc2c(/C=C/c3ccccn3)n[nH]c2c1)Nc1cccc(F)c1	6.59 µM	–
2.71 µM	2.67 µM	O=C(CCSc1ccc2c(/C=C/c3ccccn3)n[nH]c2c1)Nc1ccc(Cl)c(C(F)(F)F)c1	> 10 µM	–
2.87 µM	4.49 µM	Cc1ccc(NC(=O)CCSc2ccc3c(/C=C/c4ccccn4)n[nH]c3c2)cc1	> 10 µM	–
1.98 µM	1.75 µM	CC1CCN(Cc2ccc(NC(=O)CCSc3ccc4c(/C=C/c5ccccn5)n[nH]c4c3)cc2C(F)(F)F)CC1	4.17 µM	–
